Measurements reported in PMC13181761, “New Analogs of the Compstatin Family of Clinical Complement Inhibitors with Low Picomolar Target Affinity” (Journal of Medicinal Chemistry, 2026).
Where two headings read alike, the source gives them in different places. Where a SMILES comes first, the peptide text is derived from it. Bridges are numbered along the chain shown (N, C = ends). [ ]: non-standard residue; d: D form. Asu = N[C@@H](CCCCCC(=O)O)C(=O)O

Biological target: T1, human C3b (Homo sapiens, UniProt P01024)
T1 construct: purchased Complement Technology, Tyler, TX, USA
Assay: SPR kinetic binding to immobilized human C3b
Settings: for fold affinity drop / weaker affinity compared with Cp01: K D ratio vs Cp01
Protocol: Experiments were conducted at 25 °C in HBST buffer (10 mM HEPES, 150 mM NaCl, and 0.05% Tween-20, pH 7.4; XanTec bioanalytics). Human C3b (Complement Technology, Tyler, TX, USA) was immobilized via amine-reactive coupling. […] Individual peptide samples were injected for 120 s, followed by a 180 s dissociation phase. […] Signals from the reference cell and buffer blank injections were subtracted within each dilution series to correct for buffer effects and injection artifacts. Data were fitted to a Langmuir 1:1 binding model to calculate association (k a) and dissociation (k d) rate constants, and the equilibration constant K D is calculated based on the equation: K D = k d/k a. In the case of Cp40 derivatives and Cp60, a single-cycle approach was used for kinetic analysis by injecting 5 increasing concentrations of each compound (0.5-40 nM) consecutively without a regeneration period in between injections. Individual injections within a cycle were 120 s long with a 5 min dissociation phase between injections. […] Analog Cp40 was included in each experimental series as a reference and internal control. Signals from the reference cell and buffer blank injections were subtracted to correct for buffer effects and injection artifacts. Kinetic data were processed in BiaEvaluation (Cytiva) using single-cycle evaluation by global fitting each data set to a Langmuir 1:1 binding model. The reported kinetic parameters (Tables and ) indicate the mean values and standard deviations of three independent experiments. SPR sensorgrams are provided in the Supporting Information.

[1] = SPR, 1:1 Langmuir fit, average of 3 independent experiments, SD in brackets
[2] = SPR, 1:1 Langmuir fit, average of 3 independent experiments, SD in brackets, read-out: K D, affinity hC3b

T1 sequence (P01024 23-667 limits assumed): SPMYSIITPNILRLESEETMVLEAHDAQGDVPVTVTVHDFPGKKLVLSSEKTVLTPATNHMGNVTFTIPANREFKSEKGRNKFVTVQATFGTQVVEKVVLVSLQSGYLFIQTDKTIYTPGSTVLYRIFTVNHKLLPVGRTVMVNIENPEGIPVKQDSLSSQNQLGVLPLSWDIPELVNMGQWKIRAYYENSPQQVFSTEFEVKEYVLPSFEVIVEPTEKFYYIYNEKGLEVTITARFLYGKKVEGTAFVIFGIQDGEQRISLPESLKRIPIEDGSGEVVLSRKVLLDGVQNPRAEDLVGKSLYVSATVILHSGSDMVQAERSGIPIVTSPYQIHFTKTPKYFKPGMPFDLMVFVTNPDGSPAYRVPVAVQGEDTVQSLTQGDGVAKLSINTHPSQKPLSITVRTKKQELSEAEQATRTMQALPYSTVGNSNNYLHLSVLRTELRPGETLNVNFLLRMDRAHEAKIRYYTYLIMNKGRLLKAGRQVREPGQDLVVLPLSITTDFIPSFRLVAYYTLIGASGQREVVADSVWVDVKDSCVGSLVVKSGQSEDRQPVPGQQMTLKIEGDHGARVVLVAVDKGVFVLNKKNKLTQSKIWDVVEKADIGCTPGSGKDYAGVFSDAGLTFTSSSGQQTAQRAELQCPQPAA
T1 sequence (P01024 749-1663 partner limits assumed): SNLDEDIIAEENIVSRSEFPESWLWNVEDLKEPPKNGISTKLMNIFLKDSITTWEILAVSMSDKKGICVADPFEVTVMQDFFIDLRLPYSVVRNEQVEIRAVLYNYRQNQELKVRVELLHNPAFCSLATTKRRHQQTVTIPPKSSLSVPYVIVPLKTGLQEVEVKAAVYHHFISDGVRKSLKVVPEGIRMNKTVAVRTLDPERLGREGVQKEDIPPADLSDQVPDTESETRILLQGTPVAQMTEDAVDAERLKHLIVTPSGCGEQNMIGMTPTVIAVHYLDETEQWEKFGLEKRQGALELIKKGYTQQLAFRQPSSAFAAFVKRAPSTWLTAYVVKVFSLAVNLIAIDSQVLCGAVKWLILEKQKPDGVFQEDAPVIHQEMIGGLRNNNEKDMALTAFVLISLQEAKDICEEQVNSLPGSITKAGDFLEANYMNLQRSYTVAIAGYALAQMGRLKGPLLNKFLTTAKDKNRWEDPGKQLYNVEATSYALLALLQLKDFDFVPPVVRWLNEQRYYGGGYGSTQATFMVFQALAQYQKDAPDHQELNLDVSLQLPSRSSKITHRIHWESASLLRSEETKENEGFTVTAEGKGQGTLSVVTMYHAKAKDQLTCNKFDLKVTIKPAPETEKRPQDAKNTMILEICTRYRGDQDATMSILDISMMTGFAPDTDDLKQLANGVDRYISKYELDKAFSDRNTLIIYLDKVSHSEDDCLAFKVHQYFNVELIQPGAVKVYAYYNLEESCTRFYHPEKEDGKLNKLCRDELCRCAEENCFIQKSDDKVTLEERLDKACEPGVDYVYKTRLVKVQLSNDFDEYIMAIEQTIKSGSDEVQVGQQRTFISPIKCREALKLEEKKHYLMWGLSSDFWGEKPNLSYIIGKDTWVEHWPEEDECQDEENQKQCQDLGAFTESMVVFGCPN

Kd (SPR screening at 2 and 1 μM, series up to 16 μM, read-out: affinity hC3b (class symbol N.B./W.B.))	fold affinity drop / weaker affinity compared with Cp01	k a, affinity hC3b [1]	k d, affinity hC3b [1]	Kd [2]	SMILES
> 2000 nM	–	–	–	–	CC[C@H](C)[C@H](NC(C)=O)C(=O)N[C@H]1CSSC[C@@H](C(=O)N[C@H](C(N)=O)[C@@H](C)O)NC(=O)[C@H](CCCNC(=N)N)NC(=O)[C@H](Cc2c[nH]cn2)NC(=O)[C@H](C)NC(=O)CNC(=O)[C@H](Cc2c[nH]c3ccccc23)NC(=O)[C@H](CC(=O)O)NC(=O)[C@H](CCC(N)=O)NC(=O)[C@H](Cc2c[nH]c3ccccc23)NC(=O)[C@H](Cc2ccc(O)cc2)NC1=O [Cp01 Val3Tyr] (Ac-ICYWQDWGAHRCT-NH2; disulfide 2-12)
–	~2 fold	3.0(0.8) 10^5 M^–1 s^–1	15(2) 10^–2 s^–1	502 nM	CC[C@H](C)[C@H](NC(C)=O)C(=O)N[C@H]1CSSC[C@@H](C(=O)N[C@H](C(N)=O)[C@@H](C)O)NC(=O)[C@H](CCCCN)NC(=O)[C@H](Cc2c[nH]cn2)NC(=O)[C@H](C)NC(=O)CNC(=O)[C@H](Cc2c[nH]c3ccccc23)NC(=O)[C@H](CC(=O)O)NC(=O)[C@H](CCC(N)=O)NC(=O)[C@H](Cc2c[nH]c3ccccc23)NC(=O)[C@H](C(C)C)NC1=O [Cp01-Arg11Lys] (Ac-ICVWQDWGAHKCT-NH2; disulfide 2-12)
–	~2 fold	3.3(1.2) 10^5 M^–1 s^–1	16(3) 10^–2 s^–1	529 nM	CC[C@H](C)[C@H](NC(C)=O)C(=O)N[C@H]1CSSC[C@@H](C(=O)N[C@H](C(N)=O)[C@@H](C)O)NC(=O)[C@H](CO)NC(=O)[C@H](Cc2c[nH]cn2)NC(=O)[C@H](C)NC(=O)CNC(=O)[C@H](Cc2c[nH]c3ccccc23)NC(=O)[C@H](CC(=O)O)NC(=O)[C@H](CCC(N)=O)NC(=O)[C@H](Cc2c[nH]c3ccccc23)NC(=O)[C@H](C(C)C)NC1=O [Cp01-Arg11Ser] (Ac-ICVWQDWGAHSCT-NH2; disulfide 2-12)
–	–	5.4(1.5) 10^5 M^–1 s^–1	11(1) 10^–2 s^–1	219 nM	CC[C@H](C)[C@H](NC(C)=O)C(=O)N[C@H]1CSSC[C@@H](C(=O)N[C@H](C(N)=O)[C@@H](C)O)NC(=O)[C@H](CCCNC(=N)N)NC(=O)[C@H](Cc2c[nH]cn2)NC(=O)[C@H](C)NC(=O)CNC(=O)[C@H](Cc2c[nH]c3ccccc23)NC(=O)[C@H](CC(N)=O)NC(=O)[C@H](CCC(N)=O)NC(=O)[C@H](Cc2c[nH]c3ccccc23)NC(=O)[C@H](C(C)C)NC1=O [Cp01-Asp6Asn] (Ac-ICVWQNWGAHRCT-NH2; disulfide 2-12)
–	10 fold	1.2(0.5) 10^5 M^–1 s^–1	23(4) 10^–2 s^–1	–	CC[C@H](C)[C@H](NC(C)=O)C(=O)N[C@H]1CSSC[C@@H](C(=O)N[C@H](C(N)=O)[C@@H](C)O)NC(=O)[C@H](CCCNC(=N)N)NC(=O)[C@H](Cc2c[nH]cn2)NC(=O)[C@H](C)NC(=O)CNC(=O)[C@H](Cc2c[nH]c3ccccc23)NC(=O)[C@H](CCCCCC(=O)O)NC(=O)[C@H](CCC(N)=O)NC(=O)[C@H](Cc2c[nH]c3ccccc23)NC(=O)[C@H](C(C)C)NC1=O [Cp01-Asp6Asu] (Ac-ICVWQ[Asu]WGAHRCT-NH2; disulfide 2-12)
–	2 fold	3.8(1.6) 10^5 M^–1 s^–1	18(2) 10^–2 s^–1	528 nM	CC[C@H](C)[C@H](NC(C)=O)C(=O)N[C@H]1CSSC[C@@H](C(=O)N[C@H](C(N)=O)[C@@H](C)O)NC(=O)[C@H](CCCNC(=N)N)NC(=O)[C@H](Cc2c[nH]cn2)NC(=O)[C@H](C)NC(=O)CNC(=O)[C@H](Cc2c[nH]c3ccccc23)NC(=O)[C@H](CCC(=O)O)NC(=O)[C@H](CCC(N)=O)NC(=O)[C@H](Cc2c[nH]c3ccccc23)NC(=O)[C@H](C(C)C)NC1=O [Cp01-Asp6Glu] (Ac-ICVWQEWGAHRCT-NH2; disulfide 2-12)
